Results published in BindingDB's records for doi:10.1021/bi701954p (University of Maryland Biotechnology Institute, 2008).
Several values for one entry are separate records, joined by “and”; a condition that tells them apart may be missing. Identical values can stand only once.

Biological target: T1, Oxaloacetate decarboxylase (Pseudomonas aeruginosa (strain ATCC 15692 / DSM 22644 / CIP 104116 / JCM 14847 / LMG 12228 / 1C / PRS 101 / PAO1), UniProt Q9HUU1)
T1 sequence (Q9HUU1 whole entry): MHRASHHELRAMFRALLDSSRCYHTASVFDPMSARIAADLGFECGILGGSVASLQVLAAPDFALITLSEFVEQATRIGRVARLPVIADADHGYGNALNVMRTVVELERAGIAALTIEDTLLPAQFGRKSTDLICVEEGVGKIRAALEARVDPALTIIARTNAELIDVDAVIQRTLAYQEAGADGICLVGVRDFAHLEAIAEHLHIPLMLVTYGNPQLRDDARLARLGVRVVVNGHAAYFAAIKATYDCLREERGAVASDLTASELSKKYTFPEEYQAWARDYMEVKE
Assay: Inhibition Assay
From the text: Competitive inhibition constant determined for PA4872 catalyzed oxaloacetate decarboxylation.

Row | SMILES | Ki
1 | O=C(O)C(=O)O | 43 µM
2 | O=C(O)C(O)(O)C(F)(F)C(=O)O [3,3-Difluoroxaloacetate] | 450 µM
3 | CC(=O)CC(=O)C(=O)O [Acetopyruvate] | 1090 µM and 560 µM
4 | O=C(O)C(=O)CP(=O)(O)O [Phosphonopyruvate] | 3000 µM
5 | CC(=O)C(=O)O [Pyruvate] | 7200 µM
6 | CCCC(=O)C(=O)O [alpha-ketovalerate] | 6700 µM and 3200 µM
